According to US20160272992A1, “PROTECTION OF PLANTS AGAINST OXIDATIVE STRESS” (priority 2013, published 2016):

Tests used:
SIM/SMR promoters = experiment: SIM/SMR promoter:GUS transcriptional reporter lines; format: in vivo, Arabidopsis thaliana
Text: SIM/SMR promoter sequences were amplified from genomic DNA by PCR using the primers described in Table 5. The product fragments were created with the Pfu DNA Polymerase Kit (Promega, Catalog #M7745), and were cloned into a pDONR P4-Plr entry vector by BP recombination cloning and subsequently transferred into the pMK7S*NFml4GW,0 destination vector by LR cloning, resulting in a transcriptional fusion between the promoter of the SMR genes and the nlsGFP-GUS fusion gene (Karimi et al., 2007). For the overexpression constructs, the SMR coding regions were amplified using primers described in Table 5, and cloned into the pDONR221 vector by BP recombination cloning and subsequently transferred into the pK2GW7 destination vector (Kamimi et al., 2002) by LR cloning. All constructs were transferred into the Agrobacterium tumefaciens C58C1RifR strain harboring the pMP90 plasmid. The obtained Agrobacterium strains were used to generate stably transformed Arabidopsis lines with the floral dip transformation method (Clough and Bent, 1998). Transgenic plants were obtained on kanamycin-containing medium and later transferred to soil for optimal seed production.
Complete seedlings or tissue cuttings were stained in multiwell plates (Falcon 3043; Becton Dickinson). GUS assays were performed as described by Beeckman and Engler (1994). Samples mounted in lactic acid were observed and photographed with a stereomicroscope (Olympus BX51 microscope) or with a differential interference contrast (DIC) microscope (Leica).
To confirm involvement of SIM/SMR genes in the genotoxic stress response, transcriptional reporter lines containing the putative upstream promoter sequences were constructed for all. After selection of representative reporter lines, one-week-old seedlings were transferred to control medium, or medium supplemented with HU (resulting into stalled replication forks) or bleomycin (causing DSBs).

[1] = tested on: root meristem material of seedlings; settings: 0.3 μg/mL bleomycin for 24 hours
Method: Seeds were plated on sterilized membranes and grown under a 16-hour light/8-hour dark regime at 21° C. After 2 days of germination and 5 days of growth, the membrane was transferred to MS medium containing 0.3 μg/mL bleomycin for 24 hours. Triplicate batches of root meristem material seedlings were harvested for total RNA preparation using the RNEASY® plant mini kit (Qiagen). Each of the different root tip RNA extracts were hybridized to 12 AFFYMETRIX® Arabidopsis Gene 1.0 ST Arrays according to manufacturer's instructions at the Nucleomics Core Facility (Leuven, Belgium; World Wide Web at nucleomics.be). Raw data were processed with the RMA algorithm (Irizarry et al., 2003) using the AFFYMETRIX® Power Tools and subsequently subjected to a Significance Analysis of Microarray (SAM) analysis with “MultiExperiment Viewer 4” (MeV4) of The Institute for Genome Research (TIGR) (Tusher et al., 2001). The imputation engine was set as 10-nearest neighbor imputer and the number of permutations was 100. Expression values were obtained by log 2-transforming the average value of the normalized signal intensities of the triplicate samples. Fold changes were obtained using the expression values of the treatment relative to the control samples. Genes with Q-values<0.1 and fold change>1.5 or <0.666 were retained for further analysis.

[2] = root meristem, treatment relative to control

Substance: bleomycin
- induction of SMR6 reporter in root tips (SIM/SMR promoters; one-week-old seedlings, 0.3 μg/mL bleomycin, GUS assay after 24 hours): weak cell-specific induction
- induction of SMR5 and SMR7 GUS reporters in the proliferating leaf (SIM/SMR promoters; treated for 24 hours): induced
- Bleomycin fold change, AT1G07500 (Siamese-related 5) [1, 2]: 1.595
- Bleomycin fold change, AT1G13330 (Hop2 homolog) [1, 2]: 1.580
- Bleomycin fold change, AT1G17460 (TRF-like 3) [1, 2]: 1.681
- Bleomycin fold change, AT1G49030 (PLAC8 family protein) [1, 2]: 2.653
- Bleomycin fold change, AT2G18600 (Ubiquitin-conjugating enzyme family protein) [1, 2]: 1.972
- Bleomycin fold change, AT2G45460 (SMAD/FHA domain-containing protein) [1, 2]: 1.575
- Bleomycin fold change, AT2G46610 (RNA-binding RRM/RBD/RNP motifs family protein) [1, 2]: 1.546
- Bleomycin fold change, AT3G07800 (Thymidine kinase) [1, 2]: 2.759
- Bleomycin fold change, AT3G25250 (AGC kinase family protein) [1, 2]: 1.517
- Bleomycin fold change, AT3G27060 (Ferritin/ribonucleotide reductase-like family protein) [1, 2]: 1.970
- Bleomycin fold change, AT3G27620 (alternative oxidase 1C) [1, 2]: 1.883
- Bleomycin fold change, AT3G27950 (GDSL-like Lipase/Acylhydrolase superfamily protein) [1, 2]: 4.012
- Bleomycin fold change, AT4G02390 (Poly(ADP-ribose) polymerase) [1, 2]: 2.663
- Bleomycin fold change, AT4G04750 (Major facilitator superfamily protein) [1, 2]: 1.689
- Bleomycin fold change, AT4G05370 (BCS1 AAA-type ATPase) [1, 2]: 1.807
- Bleomycin fold change, AT4G15480 (UDP-Glycosyltransferase superfamily protein) [1, 2]: 2.394
- Bleomycin fold change, AT4G21070 (Breast cancer susceptibility1) [1, 2]: 2.386
- Bleomycin fold change, AT4G22960 (Unknown function DUF544) [1, 2]: 2.282
- Bleomycin fold change, AT5G03780 (TRF-like 10) [1, 2]: 1.600
- Bleomycin fold change, AT5G14920 (Gibberellin-regulated family protein) [1, 2]: 2.122
- Bleomycin fold change, AT5G20850 (RAS associated with diabetes protein 51) [1, 2]: 1.765
- Bleomycin fold change, AT5G24280 (Gamma-irradiation and mitomycin c induced 1) [1, 2]: 2.584
- Bleomycin fold change, AT5G25810 (Integrase-type DNA-binding superfamily protein) [1, 2]: 1.573
- Bleomycin fold change, AT5G40840 (Rad21/Rec8-like family protein) [1, 2]: 1.692
- Bleomycin fold change, AT5G48720 (X-ray induced transcript 1) [1, 2]: 2.228
- Bleomycin fold change, AT5G49110 (unknown protein) [1, 2]: 1.562
- Bleomycin fold change, AT5G49480 (Ca2+-binding protein 1) [1, 2]: 1.580
- Bleomycin fold change, AT5G55490 (Gamete expressed protein 1) [1, 2]: 2.407
- Bleomycin fold change, AT5G60100 (pseudo-response regulator 3) [1, 2]: 1.801
- Bleomycin fold change, AT5G60250 (Zinc finger C3HC4-type RING finger family protein) [1, 2]: 2.352
- Bleomycin fold change, AT5G64060 (NAC domain containing protein 103) [1, 2]: 2.153
- Bleomycin fold change, AT5G66130 (RADIATION SENSITIVE 17) [1, 2]: 1.627
- Bleomycin fold change, AT5G66985 (unknown protein) [1, 2]: 1.612
- induction of SMR7 (At3g27630) in the bleomycin experiment ([1]; Aragene array): 5.68 fold
